The results in this text go back to the Deep4Chem optical property database.

The data set can be described thus: photoluminescence quantum yield (fraction); solvent given as SMILES.

Each structure is given as a SMILES string.

Compound `CCCCN1C(=O)c2cccc3c(N(C)C)ccc(c23)C1=O` showed a photoluminescence quantum yield (in Cc1ccccc1) of 0.95.

`COc1ccc(-c2c3ccccc3c(-c3ccc(OC)cc3)c3cc4sc(C)cc4cc23)cc1` registered a photoluminescence quantum yield (in ClCCl) of 0.52. `CCCCc1ccc(-n2c3c(c4c2c2c(n4-c4ccc(CCCC)cc4)-c4cc(F)ccc4NB2c2ccccc2)B(c2ccccc2)Nc2ccc(F)cc2-3)cc1` displayed a photoluminescence quantum yield (in Cc1ccccc1) of 0.64. For the compound `N#Cc1cc(-n2c3ccccc3c3ccccc32)c(C#N)cc1-n1c2ccccc2c2ccccc21`, the photoluminescence quantum yield reads like this: (in c1cc(-c2cccc(-n3c4ccccc4c4ccccc43)c2)cc(-n2c3ccccc3c3ccccc32)c1) 0.87; (in c1ccc2c(c1)c1ccccc1n2P1(n2c3ccccc3c3ccccc32)=NP(n2c3ccccc3c3ccccc32)(n2c3ccccc3c3ccccc32)=NP(n2c3ccccc3c3ccccc32)(n2c3ccccc3c3ccccc32)=N1) 0.85. Consider `c1ccc(-c2cc(-c3ccccc3)cc(-c3ccccc3)c2)cc1`, for which the photoluminescence quantum yield (in C1COCCO1) came to 0.1.

As for `C[Si](C)(C)c1cc2c(cc3ccc4cccc5ccc2c3c45)[nH]1`, where the note is “in CCOC(C)=O”, the photoluminescence quantum yield was 0.95. As for `C(=C\c1cc(-c2ccccc2)c(/C=C/c2ccc(N(c3ccccc3)c3ccccc3)cc2)cc1-c1ccccc1)/c1ccc(N(c2ccccc2)c2ccccc2)cc1`, the photoluminescence quantum yield (in ClCCl) was 0.8.

For the setting “in Cc1ccccc1”, `c1ccc([B-]2(c3ccccc3)Oc3ccc4ccccc4c3-c3c4ccccc4nc[n+]32)cc1` gave a photoluminescence quantum yield of 0.25.

`O=[N+]([O-])c1ccc(/C2=C3N=C(C(c4ccccc4)=C/3c3ccccc3)/C(c3ccc([N+](=O)[O-])cc3)=c3\[nH]/c(c(-c4ccccc4)c3-c3ccccc3)=C(/c3ccc([N+](=O)[O-])cc3)C3=N/C(=C(/c4ccc([N+](=O)[O-])cc4)c4[nH]c2c(-c2ccccc2)c4-c2ccccc2)C(c2ccccc2)=C3c2ccccc2)cc1` gave a photoluminescence quantum yield (in ClCCl) of 0.003. For the compound `CC[n+]1nc2cc3c(cc2c2cc(C)ccc21)N(C)CCC3`, for the setting “in O”, the photoluminescence quantum yield stood at 0.54.

`Cc1ccc2nc3c(=O)[nH]c(=O)[nH]c3nc2c1C` displayed a photoluminescence quantum yield (in CC#N) of 0.019. In the case of `C1=Cc2ccc(N(c3ccccc3)c3ccccc3)cc2Cc2cc(N(c3ccccc3)c3ccccc3)ccc21`, under “in ClCCl”, the photoluminescence quantum yield was 0.99. For the compound `CN(C)c1ccc2nc(-c3ccc(C=O)cc3)sc2c1`, the photoluminescence quantum yield (in C1CCCCC1) came to 0.8, the photoluminescence quantum yield (in CC#N) was 0.66, the photoluminescence quantum yield (in CO) was 0.1 and the photoluminescence quantum yield (in ClC(Cl)Cl) came out at 0.85. As to `CN1C(=O)/C(=C/c2ccncc2)N=C1c1ccccc1`, the photoluminescence quantum yield is, setting by setting: (in C1COCCO1) 0.466; (in CC#N) 0.048; (in CCO) 0.073; (in CCOC(C)=O) 0.186; (in O) 0.0069. Consider `CCCCn1c(-c2ccc(-c3nnc(-c4ccccc4)o3)cc2)nc2c3ccccc3c3ccccc3c21`, for which the photoluminescence quantum yield (in ClCCl) worked out at 0.61. The compound `C(=C\c1ccncn1)/c1ccc(N(c2ccccc2)c2ccc(/C=C/c3ccncn3)cc2)cc1` displayed a photoluminescence quantum yield (in ClCCl) of 0.73.

Compound `c1cc2ccc1-c1ccc(cc1)-c1ccc([se]1)-c1ccc(cc1)-c1ccc(cc1)-c1ccc([se]1)-c1ccc(cc1)-c1ccc(cc1)-c1ccc-2[se]1` registered a photoluminescence quantum yield (in C1CCOC1) of 0.08. Take `CCCCCCCCCCCCOc1cc2c3c(ccc4c5c(OCCCCCCCCCCCC)cc6c7c(ccc(c1c34)c75)C(=O)N(C1CCCCC1)C6=O)C(=O)N(C1CCCCC1)C2=O`: the photoluminescence quantum yield (in ClC(Cl)Cl) was determined as 0.724.

For `CC(=O)c1c(N[C@@H](CS)C(=O)O)c2ccc(N(C)C)cc2oc1=O`, the photoluminescence quantum yield (in ClCCl) is 0.0025. Where the note is “in CO”, `COc1ccc(-c2nc(-c3cccc(OC)c3)[nH]c2-c2ccc(OC)cc2)cc1` gave a photoluminescence quantum yield of 0.25.

The compound `O=c1c2cc3ccc4cccc5ccc(c2c(=O)n1-c1ccccc1)c3c45` yielded a photoluminescence quantum yield (in ClC(Cl)Cl) of 0.5. Where the note is “in ClCCCl”, `N#Cc1ccc2nc3[nH]c(=O)[nH]c(=O)c3nc2c1` returned a photoluminescence quantum yield of 0.022. In the case of `c1ccc(-c2nc(-c3ccc(-c4nc(-c5ccccc5)c(-c5ccccc5)[nH]4)s3)[nH]c2-c2ccccc2)cc1`, for the setting “in CC#N”, the photoluminescence quantum yield turned out to be 0.55. In the case of `O=c1[nH]c2[n+](c3ccccc13)[B-](F)(F)Oc1ccccc1-2`, the photoluminescence quantum yield was 0.201 (in CC#N) and 0.24 (in Cc1ccccc1).

`C(S/C=C/c1ccc(-c2ccc(/C=C/SC=C(c3ccccc3)c3ccccc3)cc2)cc1)=C(c1ccccc1)c1ccccc1` registered a photoluminescence quantum yield (in ClCCl) of 0.143. Same read-out and setting: next, `Cn1c(=O)cc(C(=O)c2ccccc2)c2sc(-c3ccc(N(c4ccccc4)c4ccccc4)cc3)cc21`: 0.05. As for `O=C([O-])c1ccccc1C1=c2cc3c4c(c2Oc2c1cc1c5c2CCCN5CCC1)CCC[N+]=4CCC3`, the photoluminescence quantum yield runs as follows: (in CC#N) 1; (in CCO) 0.98; (in CN(C)C=O) 1; (in CO) 1; (in O) 0.99. The compound `N#CC(C#N)=Cc1nc2ccc(C#Cc3ccc(N(c4ccccc4)c4ccccc4)cc3)cc2s1` yielded a photoluminescence quantum yield (in Cc1ccccc1) of 0.07.

In turn, `CCOC(=O)COc1ccc(/C=C/C2=C3C(C)=CC(C)=[N+]3[B-](F)(F)n3c2c2ccccc2c3-c2[nH]c(C)cc2C)cc1` displayed a photoluminescence quantum yield (in ClCCl) of 0.01.

On to `O=C1c2ccccc2C2=Cc3cccc[n+]3[B-](F)(F)N12`, for which the photoluminescence quantum yield (in ClCCl) worked out at 0.47. `c1ccc(-c2nc(-c3ccccc3)nc(-c3ccc(-n4c5ccccc5c5c6c(ccc54)-c4ccccc4C6(c4ccccc4)c4ccccc4)cc3)n2)cc1`: under “in O=P(c1ccccc1)(c1ccccc1)c1ccccc1Oc1ccccc1P(=O)(c1ccccc1)c1ccccc1”, the photoluminescence quantum yield came out at 0.979. In turn, `c1ccc(-c2nc(-c3ccc(N(c4ccccc4)c4ccccc4)cc3)n3ccccc23)cc1` showed a photoluminescence quantum yield (in ClCCl) of 0.127. Regarding `CCOC(=O)CC[N+]1=c2cc3c(cc2CCC1)=Cc1c(c2ccc(N(C)C)cc2oc1=O)O3`, the photoluminescence quantum yield is, setting by setting: (in CC#N) 0.217; (in CO) 0.152; (in ClCCl) 0.469; (in O) 0.03. Turning to `COC(=O)c1cccc2c1C#Cc1c(NC(C)=O)cccc1OCCCO2`, the photoluminescence quantum yield amounted to 0.29 (in CC#N) and 0.33 (in ClCCl). `C1=Cc2ccc(N(c3ccccc3)c3cccc4ccccc34)cc2C2(c3cc(N(c4ccccc4)c4cccc5ccccc45)ccc31)c1ccccc1-c1ccccc12` yielded a photoluminescence quantum yield (in ClCCl) of 0.58.

`CCC1=C(C)C(=O)n2c1cc1c(C)c(CC(=O)OC)c(C)n1c2=O` yielded a photoluminescence quantum yield (in CO) of 0.94, a photoluminescence quantum yield (in CS(C)=O) of 1, a photoluminescence quantum yield (in ClC(Cl)Cl) of 1 and a photoluminescence quantum yield (in c1ccccc1) of 1.

As for `COc1ccc(N(c2ccc(OC)cc2)c2ccc(-c3ccc(-c4ccc(-c5cccs5)c5nsnc45)s3)cc2)cc1`, the photoluminescence quantum yield (in ClC(Cl)Cl) stood at 0.28. `CC(C)(C)c1ccc(C2=C(Br)C3=C(c4ccccc4)c4c(Br)c(-c5ccc(C(C)(C)C)cc5)c(-c5ccc(C(C)(C)C)cc5)n4[B-](F)(F)[N+]3=C2c2ccc(C(C)(C)C)cc2)cc1` displayed a photoluminescence quantum yield (in C1CCCCC1) of 0.13; a photoluminescence quantum yield (in C1CCOC1) of 0.11; a photoluminescence quantum yield (in CC#N) of 0.03; a photoluminescence quantum yield (in Cc1ccccc1) of 0.1; a photoluminescence quantum yield (in ClCCl) of 0.09. In the case of `CC(C)(C)NS(=O)(=O)c1ccc2c(c1)C(=O)/C(=C1\Sc3ccc(S(=O)(=O)NC(C)(C)C)cc3C1=O)S2`, the photoluminescence quantum yield by setting is: (in C1COCCO1) 0.611; (in CN(C)C=O) 0.352; (in CS(C)=O) 0.009. Compound `C[Si](C)(C)C#CC(C#C[Si](C)(C)C)=Cc1ccc(C=C(C#C[Si](C)(C)C)C#C[Si](C)(C)C)s1` returned a photoluminescence quantum yield (in ClC(Cl)Cl) of 0.01. The compound `CC(C)(C)c1ccc2c(c1)c1cc(C(C)(C)C)ccc1n2-c1ccc(C#Cc2ccc(C#Cc3ccc(C=C(C#N)C#N)cc3)cc2)cc1` showed a photoluminescence quantum yield (in ClCCl) of 0.3. `CCOC(=O)c1cc(C(=O)OCC)c2cc(O)ccc2n1` registered a photoluminescence quantum yield (in CCO) of 0.16. In the case of `O=S1(=O)C(c2ccsc2)=C(c2ccsc2)c2ccccc21`, where the note is “in C1CCOC1”, the photoluminescence quantum yield was 0.005. Consider `COc1ccc(C2=C3C=C(/C=C/C(=O)OC(C)(C)C)C=[N+]3[B-](F)(F)n3cccc32)cc1`, for which the photoluminescence quantum yield (in ClCCl) worked out at 0.13.

Turning to `c1ccc(C2c3ccccc3-c3ccccc32)cc1`, where the note is “in CCO”, the photoluminescence quantum yield was 0.19. Consider `COc1ccc(-c2nc(-c3ccccc3)c(N(c3ccccc3)c3ccccc3)s2)cc1`, for which the photoluminescence quantum yield (in ClC(Cl)Cl) came out at 0.16.

As to `CCOC(=O)CN1C(=O)C2=C(c3ccccc3)N(CC(=O)OCC)C(=O)C2=C1c1ccccc1`, the photoluminescence quantum yield stood at 0.31 (in CC#N), 0.56 (in CS(C)=O) and 0.36 (in Cc1ccccc1). For `CCN(CC)c1ccc2cc(/C=C/C(=O)/C=C(O)/C=C/c3cc4ccc(N(CC)CC)cc4oc3=O)c(=O)oc2c1`, the photoluminescence quantum yield reads like this: (in C1CCOC1) 0.62; (in C1COCCO1) 0.66; (in CC#N) 0.06; (in CC(C)=O) 0.2; (in CCOC(C)=O) 0.56; (in CS(C)=O) 0.05. For the same compound, the photoluminescence quantum yield is 0.76 (in Cc1ccccc1), 0.45 (in ClC(Cl)Cl) and 0.44 (in ClCCl). For the compound `N#Cc1ccc(-c2nc(-c3ccccc3)c(-c3ccccc3)[nH]2)cc1`, for the setting “in CO”, the photoluminescence quantum yield is 0.52. Turning to `N#Cc1ccc(N2c3ccccc3C(c3ccccc3)(c3ccccc3)c3ccccc32)cc1`, the photoluminescence quantum yield (in Cc1ccccc1) was determined as 0.22. The compound `CN(C)c1ccc(C#Cc2cc(C#Cc3ccc(N(C)C)cc3)c3ccc4c(C#Cc5ccc(C(F)(F)F)cc5)cc(C#Cc5ccc(N(C)C)cc5)c5ccc2c3c54)cc1` registered a photoluminescence quantum yield (in ClCCl) of 0.65.
